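In this assay, cells in 96-well plates receive the compound at five concentrations for 48 hours. Endpoints are linearly interpolated between the surrounding concentrations. TGI is the concentration that stops growth completely.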
How the values were obtained:
Experiment in all cases: NCI anticancer screen, dose series, 48 h
DU-145 prostate = tested on: DU-145 prostate
HCT-116 colon = tested on: HCT-116 colon
KM12 colon = tested on: KM12 colon
MALME-3M melanoma = tested on: MALME-3M melanoma
NCI-H460 lung = tested on: NCI-H460 lung
OVCAR-8 ovarian = tested on: OVCAR-8 ovarian
SF-295 CNS = tested on: SF-295 CNS
SK-OV-3 ovarian = tested on: SK-OV-3 ovarian
SNB-19 CNS = tested on: SNB-19 CNS
T-47D breast = tested on: T-47D breast

| SMILES | TGI (DU-145 prostate) [µM] | TGI (HCT-116 colon) [µM] | TGI (KM12 colon) [µM] | TGI (MALME-3M melanoma) [µM] | TGI (NCI-H460 lung) [µM] | TGI (OVCAR-8 ovarian) [µM] | TGI (SF-295 CNS) [µM] | TGI (SK-OV-3 ovarian) [µM] | TGI (SNB-19 CNS) [µM] | TGI (T-47D breast) [µM] |
| --- | --- | --- | --- | --- | --- | --- | --- | --- | --- | --- |
| Clc1c(C(Cl)(Cl)Cl)nsc1N1CCCCC1 | > 100 | 76.6 | 55.7 | 40.8 | > 100 | 71 | 66.8 | 78.9 | 69.7 |  |
| Cn1c(=O)c2c(nc(Nc3ccc(Cl)cc3)n3c(=O)n(-c4ccccc4)c(=O)n23)n(C)c1=O | > 100 | > 100 | > 100 |  | > 100 | > 100 | > 100 |  | > 100 | > 100 |
| CC(C)OC(=O)[C@@H](O)[C@H](CO)C1=CC([Si](C)(C)c2ccccc2)=CON1 | > 100 | > 100 | > 100 |  | > 100 | > 100 | > 100 | > 100 | > 100 | > 100 |
| CC(Cc1ccccc1)NC1=NCCO1 (stereo unspecified) |  | 32.4 |  |  | 36.6 | > 100 | > 100 | > 100 | > 100 | > 100 |
| C=C1C(=O)O[C@@H]2[C@H](O)[C@@H](C)[C@@H]3C=CC(=O)[C@@]3(C)[C@H](OC(=O)C=C(C)C)[C@H]12 |  | 1.72 | 3.78 | 1.25 | 6.02 | 8.53 | 7.27 | 7.91 | 17.2 |  |
| NC1CC(=O)c2sccc21 (stereo unspecified) | > 100 | > 100 | > 100 |  |  | > 100 | > 100 | > 100 | > 100 | > 100 |
| O=c1c2ccccc2[nH]c2cc(O)cc(O)c12 |  | > 100 | > 100 | > 100 | > 100 | > 100 | > 100 | > 100 | > 100 |  |
| CCN(CC)CCCOc1cc2c(cc1OC)C(=O)N1CCC[C@H]1C=N2 | > 100 | > 100 | 48.4 | > 100 | > 100 | > 100 | 75.5 | > 100 | > 100 |  |
| C(=C\c1cc(-c2ccc3ccccc3n2)nc2ccc3ccccc3c12)/c1ccc2ccccc2n1 | > 100 | > 100 | > 100 | > 100 | > 100 | > 100 | > 100 | > 100 | > 100 |  |
| O=C1CCCC2=C1CC1=C(CCCC1=O)N2c1ccccc1 |  |  | > 100 |  | > 100 | > 100 |  | > 100 | > 100 |  |
| CCCCCCC(C)OC(=O)/C=C(\CC(=O)OC(C)CCCCCC)C(=O)OC(C)CCCCCC (stereo unspecified) |  | > 100 |  | > 100 | > 100 | > 100 | > 100 | > 100 |  |  |
| COc1cc(C2c3cc4c(cc3[C@@H](Nc3cccc([N+](=O)[O-])c3)C3COC(=O)[C@H]23)OCO4)cc(OC)c1O (stereo partly specified) |  | 21.6 | 16.9 | 20.1 | 1.72 | > 32.9 | 4.94 | 9.67 | > 31.4 |  |
| O=[N+]([O-])c1ccc2c(c1)c(S(=O)(=O)O)cc1nonc12 |  | > 100 | > 100 | > 100 | > 100 | > 100 | > 100 | > 100 | > 100 | > 100 |
| CC(=O)OCC1OC(O/C=C(\CN=[N+]=[N-])C(C)=O)C(OC(C)=O)C(OC(C)=O)C1OC(C)=O (stereo unspecified) |  | 13.8 | 40.3 | 10.3 | 48.9 | > 100 | > 100 | > 100 | 83.8 | 13.4 |
| CCN(CC)CCCC(C)NC(=O)c1ccc2c(c1)C(=O)c1ccccc1C2=O (stereo unspecified) |  | 51.7 | 35.7 | 27.6 | 39.8 | 66 | 45.8 | > 93.6 | 55.3 |  |
| CCc1nc2ccc(C(F)(F)F)cc2[nH]c1=O | > 100 | > 100 | > 100 | > 100 | > 100 | > 100 | > 100 | > 100 | > 100 |  |
| O=C1c2ccccc2-c2nc(/C=C/c3ccccc3)cc3c2c1nc1ccccc13 | > 100 | > 100 | 68.4 |  |  | > 100 | > 100 | > 100 | > 100 | > 100 |
| CS(=O)(=O)OCCCOS(C)(=O)=O |  | > 100 | > 100 | > 100 | > 100 | > 100 | > 100 | > 100 | > 100 |  |
| O=C1ON=C2C3CC4CC12CC1(C3)C(=O)ON=C41 | > 100 | > 100 | > 100 | > 100 | > 100 | > 100 | > 100 |  | > 100 |  |
| O=C1c2ccccc2C(=O)c2c(O)ccc(O)c21 |  | > 100 | > 100 | > 100 | > 100 | > 100 | > 100 | > 100 | > 100 |  |

From PubChem BioAssay (NCI)
